Results: US20210030703A1, “USE OF CALORIC RESTRICTION MIMETICS FOR POTENTIATING CHEMO-IMMUNOTHERAPY FOR THE TREATMENT OF CANCERS” (INSERM (INSTITUT NATIONAL DE LA SANTÉ ET DE LA RECHERCHE …, priority 2018, published 2021)

Columns and labels:
PD-L1 = PD-L1 expression on CD45+/- tumor infiltrating cells; format: in vivo, C57B1/6 mice
Source text: WT 9 weeks old C57B1/6 mice were subcutaneously injected with MCA205 WT fibrosarcoma cells. When tumors became palpable, mice underwent two days of fasting (d-2 to d0). HC treatment in drinking water began the day after (d-1), followed by chemotherapy with MTX (d0). 11 days post-chemotherapy, mice were sacrified and tumors were collected, dissociated, filtrated and stained with panel 3 antibodies. The results are represented as percentage among viable cells. […] The data shown represent a pool of two independent experiments sharing all the groups. Statistical analysis were realized using ordinary one-way ANOVA. ****p<0.001, ***p<0.005, **p<0.01, *p<0.05.
3 or 11 days post-chemotherapy (d3 or d11), mice were euthanized and the tumors were withdrawn and placed in gentleMACS C tubes (ref 130-096-334 from Miltenyi Biotec™) previously filled with 1 ml of DMEM or RPMI medium, and immediately put on ice. After a mechanical (with scissors) and chemical digestion (thanks to the tumor dissociation kit and the gentleMACS Octo Dissociator, ref 130-096-730 and 130-096-427, respectively, from Miltenyi Biotec™), tumors were filtered (using MACS smartstrainers […], ref 130-110-916 from Miltenyi Biotec™), washed twice with PBS and distributed in a 96-wells round bottom plate.
Then, cells were stained with a live dead dye (ref L34959 from ThermoFisher Scientific™) and an FCblock receptor targeting antibody. […] Finally, cells were resuspended in FACS buffer and analyzed on a flow cytometer BD LSR II.

whole MCA205 tumors = test: RNA-seq analyses of whole tumors; format: in vivo, C57B1/6 mice; details: day 3 post-chemotherapy (MTX); data not shown
[1] = test system: immune infiltrate of MCA205 tumors; test: Immunophenotyping of the tumor immune infiltrate by flow cytometry; format: in vivo, C57B1/6 mice; details: for Density of CD45+ leukocytes in the tumor: day 11 post-chemotherapy
Description: 3 or 11 days post-chemotherapy (d3 or d11), mice were euthanized and the tumors were withdrawn and placed in gentleMACS C tubes (ref 130-096-334 from Miltenyi BiotecTM) previously filled with 1 ml of DMEM or RPMI medium, and immediately put on ice. […] Then, cells were stained with a live dead dye (ref L34959 from ThermoFisher ScientificTM) and an FCblock receptor targeting antibody. For the surface stainings, several anti-mouse fluorochrome-coupled antibodies were employed, that were for 1) myeloid cells “staining 1”: anti-CD45 APC-Fire750 (clone 30E-11, ref 130154 BiolegendTM), anti-Ly-6G PE (clone 1A8, ref 551461 BDTM), anti-Ly-6C FITC (clone AL-21, ref 553104, BDTM), anti-CD11b V450 (clone M1/70, ref 560455 BDTM), anti-CD11c PE-Cy7 (clone HL3, ref 558470 BDTM), anti-CD80 PerCP-Cy5.5 (16-10A1, ref 104722 BiolegendTM), and anti-MHC-II APC (clone M5/114.15.2, ref 107614 BiolegendTM) 2) T-cells “staining 2”: anti-CD3 APC (clone 17A2, ref 17-0032-82 eBioscienceTM), anti-CD8 PE (clone 53-6.7, ref 553032 BDTM), anti-CD4 PerCP-Cy5.5 (clone RM4-5, ref 45-0042-82 eBioscienceTM), anti-CD25 PE-Cy7 (clone PC61.5, ref 25-0251-82 InvitrogenTM), anti-ICOS BV421 (clone 7E.17G9, ref 564070 BDTM) and anti-PD-1 APC-Fire750 (clone 29F.1Al2, ref 135240 BiolegendTM) 3) PD-L1 expressing-cells “staining 4”: anti-CD45 AlexaFluor647 (clone 30E-11, ref 103-124 BiolegendTM), anti-PD-L1 BV421 (clone MIHS, ref 564716 BDTM) and anti-PD-L2 PE-Dazzle594 (clone TY25, ref 107215 BiolegendTM) 4) NKT cells “staining 5”: anti-CD3 FITC (clone 17A2, ref 11-00-32-82 eBioscienceTM) and anti-NK1.1 PerCP-Cy5.5 (clone PK136, ref 551114 BDTM). After the fixation and permeabilization of the cells (thanks to the Cytofix/Cytoperm kit, ref 554714 BDTM for stainings 1, 3, 4 and 5; and with the Foxp3/Transcription Factor kit, ref 00-5523-00 eBioscienceTM for staining 2), intracellular stainings were performed using for “staining 2”: anti-FoxP3 FITC (clone FJK-16s, ref 11-5773-82 eBioscienceTM) and for “staining 3”: anti-IFNg APC (clone XMG1.2, ref 505-810 BiolegendTM), anti-TNFα APC-Cy7 (clone MP6-XT22, ref 506344 BiolegendTM) and anti-IL-2 PE-Dazzle 594 (clone JES6-5H4, ref 503-840 BiolegendTM). Finally, cells were resuspended in FACS buffer and analyzed on a flow cytometer BD LSR II.

[2] = background, reference (9); cited from earlier work
mammary carcinomas = test: Hormone-induced (MPA/DMBA) orthotopic mammary tumor model; format: in vivo, BALB/c mice; details: combination of MTX-based chemotherapy and HC, versus MTX and HC alone; data not shown
Source text: Breast cancers were induced in young (7-weeks-old) female BALB/c mice by implantation of medroxyprogesterone acetate (MPA)-releasing pellets followed by gavage with the DNA damaging agent 7,12-Dimethylbenz[a]anthracene (DMBA) for the following 6 weeks. Note that the interval between the last DMBA injection and the manifestation of palpable breast cancer lesions is rather variable. When palpable tumors appeared, mice were randomized into the different experimental groups and treated with intraperitoneal injections of hydroxycitrate (100 mg/kg) at d-1 and d0 and/or intraperitoneal injections of 5.17 mg/kg of Mitoxantrone. Neutralizing anti-CD11b antibodies (clone M1/70, ref BE0007 from BioXCell™) or their isotype control (clone LTF-2, ref BE0090 from BioXCell™) were then injected at d-1, d0 and d7. Tumor growth was followed by calculating tumor surface (mm^2) with the formula length×width.

MCA205 fibrosarcoma = test: Subcutaneous MCA205 fibrosarcoma: tumor growth, cure and survival under chemo-immunotherapy; format: in vivo, C57B1/6 mice
CTLA-4 = CTLA-4 expression in tumors; format: in vivo, C57B1/6 mice; details: MTX alone or together with fasting or CRMs; data not shown
[3] = day 11 post-MTX, data not shown

Structure (SMILES)	Effect of co-treatment on MTX-induced PD-L1 upregulation (PD-L1; FIG. 8A-D)	Evidence of local immunostimulation (whole MCA205 tumors)	Increase in the density of total CD3+ and CD8+ T cell infiltrate ([1]; combined with MTX, data not shown)	Myeloid infiltrate ([1]; day 3 post-chemotherapy (MTX), data not shown)	Granulocyte infiltration (Ly6C+Ly6Ghi) [1, 3]	Monocytic dendritic cell subpopulation with activation markers (Ly6G-Ly6ChiCD11b+CD11c+CD80+MHC-IIhi) [1, 3]	Density of CD45+ leukocytes in the tumor ([1]; MTX-treated animals that received HC)	Efficacy of anticancer chemotherapy with immunogenic cell death (ICD) inducers [2]	Reduction of tumor growth and prolongation of mouse survival (mammary carcinomas)	Cure rate (MCA205 fibrosarcoma; CRM added to OXA+PD-1 blockade) [%]	Cured mice (MCA205 fibrosarcoma; CRM added to OXA+PD-1 blockade)	Efficacy of OXA and anti-PD-1 combination when the CRM is added (MCA205 fibrosarcoma; figure legend FIG. 7)	PD-L1 on non-leukocytes from the cancer (CD45- cells, mostly malignant cells) (PD-L1; MCA205 tumor-bearing mice treated with MTX (FIG. 8A, B))	PD-L1 in leukocytes expressing CD11b (PD-L1; MCA205 tumor-bearing mice treated with MTX (FIG. 8C, D))	Percentage of CD45- PD-L1+ cells (PD-L1; MTX alone or in combination with NF or HC, 11 days post-chemotherapy (FIG. 8A))	Mean fluorescent intensity of PD-L1 on CD45- cells (PD-L1; MTX alone or in combination with NF or HC, 11 days post-chemotherapy (FIG. 8B))	Percentage of CD45+ PD-L1+ cells (PD-L1; MTX alone or in combination with NF or HC, 11 days post-chemotherapy (FIG. 8C))	Mean fluorescent intensity (D) of PD-L1 on CD45- cells (PD-L1; MTX alone or in combination with NF or HC, 11 days post-chemotherapy (FIG. 8D))	Expression of CTLA-4 (CTLA-4)	Density of CD45+ leukocytes in the tumor ([1]; MTX-treated cancers)
O=C(O)CC(O)(C(=O)O)C(O)C(=O)O (centres unmarked) [HC, hydroxycitrate]	not altered	failed to yield convincing evidence	neither HC nor spermidine	no major increments	increase	increase	more so	able to improve the efficacy	highly efficient in reducing tumor growth and prolonging mouse survival	80	16 out of 20	further enhanced	–	–	–	–	–	–	–	–
O=C1c2c(O)ccc(O)c2C(=O)c2c(NCCNCCO)ccc(NCCNCCO)c21 [MTX, mitoxantrone]	–	–	–	–	–	–	–	–	–	–	–	–	upregulation	upregulation	increases	increases	increases	increases	No changes	higher density
